Test results from ChEMBL document CHEMBL6103630, “Discovery of Novel 2,4,5-Trisubstituted Pyrimidine Derivatives as Potent and Selective FGFR Inhibitors against Gatekeeper Mutants for the Treatment of NSCLC” (J Med Chem, 2025).
Calls of active or inactive are those of the source. No cut-off for these calls is given here.

Experiments:
[1] = target: Fibroblast growth factor receptor 1 (Homo sapiens) (UniProt P11362); settings: dose 1000.0 nM
Description: Inhibition of FGFR1 (unknown origin) at 1000 nM by caliper mobility shift assay relative to control

NCI-H1581 [2] = assay: cells; settings: Homo sapiens, NCI-H1581, 48 h
Description: Antiproliferative activity against human NCI-H1581 cells assessed as inhibition of cell proliferation incubated for 48 hrs by MTT assay

A549 = assay: cells; settings: Homo sapiens, A549, 48 h
Description: Antiproliferative activity against human A549 cells assessed as inhibition of cell proliferation incubated for 48 hrs by MTT assay

NCI-H1581 [3] = assay: Antitumor activity against human NCI-H1581 cells xenografted in BALB/c nude mouse assessed as tumor growth inhibition at 60 mg/kg relative to control; format: functional; settings: read-out: TGI
[4] = target: Fibroblast growth factor receptor 1 (Homo sapiens) (UniProt P11362); assay: Reversible inhibition of FGFR1 (unknown origin) phosphorylation in human NCI-H1581 cells at 1 uM preincubated with compound for 2 hrs followed by compound washout and measured after 0.5 hrs by Western blotting analysis; format: cell-based

Fibroblast growth factor receptor 1 (Homo sapiens), sequence (P11362 22-822 limits assumed): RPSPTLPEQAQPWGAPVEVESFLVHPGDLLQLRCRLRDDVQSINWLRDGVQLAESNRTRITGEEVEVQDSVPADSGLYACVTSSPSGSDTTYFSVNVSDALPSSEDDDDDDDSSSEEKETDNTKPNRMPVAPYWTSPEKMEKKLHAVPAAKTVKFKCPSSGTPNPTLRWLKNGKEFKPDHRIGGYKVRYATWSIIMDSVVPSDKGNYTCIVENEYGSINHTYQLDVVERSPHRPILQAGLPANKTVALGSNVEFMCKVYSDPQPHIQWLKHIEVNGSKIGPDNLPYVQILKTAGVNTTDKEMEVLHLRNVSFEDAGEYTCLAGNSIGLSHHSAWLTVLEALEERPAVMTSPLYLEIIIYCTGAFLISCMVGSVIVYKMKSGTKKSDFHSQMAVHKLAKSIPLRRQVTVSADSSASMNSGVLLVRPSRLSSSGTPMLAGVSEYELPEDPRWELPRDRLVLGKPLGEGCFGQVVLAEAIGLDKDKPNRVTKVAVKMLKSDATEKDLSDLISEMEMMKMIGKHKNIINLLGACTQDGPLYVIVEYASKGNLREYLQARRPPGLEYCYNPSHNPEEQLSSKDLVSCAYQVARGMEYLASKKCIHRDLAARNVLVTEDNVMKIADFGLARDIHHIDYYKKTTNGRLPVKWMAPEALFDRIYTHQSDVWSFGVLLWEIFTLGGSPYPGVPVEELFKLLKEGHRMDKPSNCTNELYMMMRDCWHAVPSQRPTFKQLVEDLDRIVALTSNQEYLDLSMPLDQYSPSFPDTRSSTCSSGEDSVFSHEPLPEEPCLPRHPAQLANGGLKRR

Row | Compound | inhibition [1] [%] | IC50 (NCI-H1581 [2]) [nM] | IC50 (A549) [nM] | inhibition in vivo at 60 mg/kg (NCI-H1581 [3]) [%] | inhibition [4]
1 | C=CC(=O)Nc1ccccc1Nc1nc(Nc2ccc(N3CCN(C)CC3)cc2)ncc1Cl | 94.9 |  |  |  | 
2 | C=CC(=O)Nc1ccc(Nc2nc(Nc3ccc(N4C[C@@H](C)N[C@@H](C)C4)cc3)ncc2Cl)cc1Cl |  | 210 | 1180 |  | 
3 | C=CC(=O)Nc1ccc(Nc2nc(Nc3ccc(N4CCC(N(C)C)CC4)c(OC)c3)ncc2Cl)cc1Cl |  | 120 | 12100 |  | 
4 | C=CC(=O)Nc1ccc(Nc2nc(Nc3ccc(N4CCN(C)CC4)nc3)ncc2Cl)cc1Cl |  | 470 | 3180 |  | 
5 | C=CC(=O)N1CC[C@H](n2nc(C#Cc3cc(OC)cc(OC)c3)c3c(N)ncnc32)C1 [FUTIBATINIB] |  | 5 | > 20000 | 54 | 
6 | C=CC(=O)Nc1ccc(Nc2nc(Nc3ccc(N4CCN(C)CC4)c(F)c3)ncc2Cl)cc1Cl |  | 130 | 4150 |  | 
7 | Cc1ccc(C(=O)Nc2ccc(CN3CCN(C)CC3)c(C(F)(F)F)c2)cc1C#Cc1cnc2cccnn12 |  |  |  |  | inactive
8 | C=CC(=O)Nc1ccc(Nc2nc(Nc3ccc(N4CCN(CC)CC4)c(OC)c3)ncc2Cl)cc1Cl |  | 170 | 9030 |  | 
